Experimental data from ChEMBL document CHEMBL1201862, “PubChem BioAssay data set” (2004).
Calls of active or inactive are those of the source.

How the values were obtained:
[1] = Counterscreen for activators of the function of SWI/SNF related, matrix associated, actin dependent regulator of chromatin, subfamily a, member 2 (SMARCA2, BRM): Luminescence-based cell-based high throughput dose response assay to identify non-selective compounds using the VP16 reporter assay.; format: functional
[2] = target: SWI/SNF-related matrix-associated actin-dependent regulator of chromatin subfamily A member 2 (Homo sapiens, UniProt P51531); assay: Luminescence-based cell-based high throughput dose response assay to identify activators of the function of SWI/SNF related, matrix associated, actin dependent regulator of chromatin, subfamily a, member 2 (SMARCA2, BRM).; format: functional
[3] = Luminescence Cell-Based Dose Confirmation HTS to Identify Inhibitors of Platelet Dense Granule Release. [Related pubchem assays: 1663 (Primary HTS), 1678 (Summary of Project)]; format: functional
[4] = target: Luciferin 4-monooxygenase (Photinus pyralis, UniProt P08659); assay: inhibition of purified Photinus pyralis luciferase – biochemical, luminescence, dose response (AID 1891)
cells [5] = format: functional
[6] = target: Voltage-dependent T-type calcium channel subunit alpha-1H (Homo sapiens, UniProt O95180); format: functional;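 also: channel activity triggered by adding a high calcium stimulation buffer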
[7] = target: T1, Heat shock factor protein 1 (Mus musculus, UniProt P38532); assay: enhancement of HSF1-driven luciferase signal – cell-based, NIH3T3, luminescence, dose retest, confirmation (AID 435004); format: functional;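 also: stress induced by proteasome inhibitor MG132 added 30 min after compound; luciferase reporter driven by HSF1 response element in NIH3T3 cells; actives raise luminescence as potentiators of the MG132 stress response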
T1 sequence (P38532 whole entry): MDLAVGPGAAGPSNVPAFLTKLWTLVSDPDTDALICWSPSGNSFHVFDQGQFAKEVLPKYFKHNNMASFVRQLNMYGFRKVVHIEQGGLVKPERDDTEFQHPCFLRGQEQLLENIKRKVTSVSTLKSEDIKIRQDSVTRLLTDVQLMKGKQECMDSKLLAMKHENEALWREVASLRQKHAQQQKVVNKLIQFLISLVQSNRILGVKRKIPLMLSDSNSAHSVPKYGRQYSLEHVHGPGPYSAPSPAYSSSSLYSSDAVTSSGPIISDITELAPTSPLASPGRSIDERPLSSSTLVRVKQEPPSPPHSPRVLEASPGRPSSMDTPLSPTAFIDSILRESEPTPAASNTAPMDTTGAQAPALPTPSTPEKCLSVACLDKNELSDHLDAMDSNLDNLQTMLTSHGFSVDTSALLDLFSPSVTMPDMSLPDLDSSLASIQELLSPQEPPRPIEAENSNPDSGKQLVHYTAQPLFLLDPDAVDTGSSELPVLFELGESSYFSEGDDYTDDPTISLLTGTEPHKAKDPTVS

[8] = target: T2, Lysine-specific demethylase 4C (Homo sapiens, UniProt Q9H3R0); assay: inhibition of JMJD2C H3K9me3 demethylation – biochemical, DELFIA europium, cherry-picked samples, dose response (AID 488835); format: functional
T2 sequence (Q9H3R0 whole entry): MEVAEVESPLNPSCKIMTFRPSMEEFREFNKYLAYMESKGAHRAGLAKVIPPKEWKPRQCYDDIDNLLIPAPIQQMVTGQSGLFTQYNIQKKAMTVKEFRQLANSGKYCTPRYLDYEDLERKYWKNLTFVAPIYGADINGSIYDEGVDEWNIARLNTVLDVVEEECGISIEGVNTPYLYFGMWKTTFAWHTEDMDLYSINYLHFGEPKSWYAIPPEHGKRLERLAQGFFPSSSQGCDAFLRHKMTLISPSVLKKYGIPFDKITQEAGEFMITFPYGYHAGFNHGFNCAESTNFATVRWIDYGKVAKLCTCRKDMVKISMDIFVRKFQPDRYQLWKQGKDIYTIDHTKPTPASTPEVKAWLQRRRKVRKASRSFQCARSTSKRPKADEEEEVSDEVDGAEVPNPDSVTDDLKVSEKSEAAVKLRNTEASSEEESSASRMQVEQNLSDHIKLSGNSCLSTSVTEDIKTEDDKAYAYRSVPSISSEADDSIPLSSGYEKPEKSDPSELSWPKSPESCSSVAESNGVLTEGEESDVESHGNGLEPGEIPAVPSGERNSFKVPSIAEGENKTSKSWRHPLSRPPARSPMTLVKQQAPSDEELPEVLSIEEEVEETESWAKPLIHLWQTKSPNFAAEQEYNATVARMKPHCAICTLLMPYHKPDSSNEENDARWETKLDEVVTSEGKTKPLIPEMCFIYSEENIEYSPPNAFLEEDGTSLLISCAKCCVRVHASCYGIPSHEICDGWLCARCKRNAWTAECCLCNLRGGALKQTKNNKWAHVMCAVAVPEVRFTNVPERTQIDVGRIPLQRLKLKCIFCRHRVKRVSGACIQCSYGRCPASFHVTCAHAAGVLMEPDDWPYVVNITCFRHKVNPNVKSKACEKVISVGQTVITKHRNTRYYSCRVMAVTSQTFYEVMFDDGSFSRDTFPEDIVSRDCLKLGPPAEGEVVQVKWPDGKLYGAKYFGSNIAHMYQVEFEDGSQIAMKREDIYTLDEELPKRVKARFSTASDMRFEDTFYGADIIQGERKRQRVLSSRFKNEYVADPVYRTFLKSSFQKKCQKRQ

HEK293 [9] = assay: inhibition of NOD1-driven NF-kB reporter – cell-based, luminescence, uHTS, primary screen (AID 1578); format: functional; details: Homo sapiens
[10] = test system: Streptococcus sp. 'group A'; assay: Streptococcus pyogenes SK(-)GAS viability under kanamycin – luminescence, BacTiterGlo, confirmation, counter-screen for streptokinase expression inhibitor project, dose response (AID 1900); format: functional, organism-based
Streptokinase A = target: T3, Streptokinase A (Streptococcus pyogenes serotype M1, UniProt P10520); assay: viability-normalized secreted streptokinase activity reduction – plasminogen activation absorbance, OD405, dose response (AID 1914); format: functional, Streptococcus pyogenes M1 GAS;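 also: secreted streptokinase activity via plasminogen activation per viability signal from cell pellet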
T3 sequence (P10520 whole entry): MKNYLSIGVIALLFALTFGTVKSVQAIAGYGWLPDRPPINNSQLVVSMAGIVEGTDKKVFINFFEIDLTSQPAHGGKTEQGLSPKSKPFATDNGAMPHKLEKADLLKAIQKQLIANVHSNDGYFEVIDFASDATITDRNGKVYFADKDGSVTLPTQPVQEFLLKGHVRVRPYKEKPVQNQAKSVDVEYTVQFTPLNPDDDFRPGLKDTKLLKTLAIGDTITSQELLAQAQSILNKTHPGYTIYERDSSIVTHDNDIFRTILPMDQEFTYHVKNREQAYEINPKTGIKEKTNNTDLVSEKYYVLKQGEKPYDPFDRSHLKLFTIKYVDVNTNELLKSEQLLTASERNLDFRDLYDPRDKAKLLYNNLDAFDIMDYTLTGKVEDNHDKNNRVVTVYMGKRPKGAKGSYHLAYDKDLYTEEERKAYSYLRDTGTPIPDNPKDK

HEK293 [11] = assay: NOD2 signaling inhibitors in MDP-stimulated cells, cell-based, uHTS, luminescence (AID 2001); format: functional; details: Homo sapiens
HEK293 [12] = assay: cells; format: functional, cell-based; details: Homo sapiens
HEK293 [13] = assay: cells; format: functional, cell-based; details: Homo sapiens; remark: listed apart in the source
Streptococcus = assay: GAS UMAA2166 growth inhibition – luminescence, BacTiterGlo, counter-screen for streptokinase expression inhibitor project, dose response (AID 1915); format: functional, organism-based;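 also: potency for reduction of bacterial viability or growth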
cells [14] = format: functional, cell-based
cells [15] = format: functional, cell-based; remark: listed apart in the source
[16] = target: Heat shock protein HSP 90-alpha (Homo sapiens, UniProt P07900); format: functional, organism-based
HEK293 [17] = assay: EBV LMP1 TES2 canonical NF-kB signalling blockers – cell-based, HEK293, luciferase, cherry-pick, dose response (AID 588343); format: functional; details: Homo sapiens
[18] = target: T4, Ubiquitin-conjugating enzyme E2 N (Homo sapiens, UniProt P61088); format: functional;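 also: Dose-response confirmation in a TR-FRET assay detecting UBC13-driven polyubiquitin chain formation, inhibition measured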
T4 sequence (P61088 whole entry): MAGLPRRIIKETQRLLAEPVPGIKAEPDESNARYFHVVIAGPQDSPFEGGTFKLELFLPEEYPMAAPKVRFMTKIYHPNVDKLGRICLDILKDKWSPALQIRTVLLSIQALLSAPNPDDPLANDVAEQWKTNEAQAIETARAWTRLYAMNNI

Nonstructural protein 1 = Nonstructural protein 1 (Influenza A virus, UniProt Q194T2); format: functional, Influenza A virus (A/California/07/2009(H1N1))
[19] = Luminescence Cell-Based Dose Response HTS to Identify Inhibitors of 5'UTR Stem-Loop Driven Prion Protein mRNA Translation in H4 Neuroglioblastoma Cells. [Related pubchem assays: 1827 (Project Summary), 1813 (Primary HTS)]; format: functional
[20] = alpha-synuclein stem-loop luciferase translation blockers – H4 neuroglioma cells, luminescence, confirmation (AID 1988); format: functional, cell-based
[21] = luciferase reporter signal suppression in cells – H4 neuroglioma cells, luminescence, dose response (AID 1990); format: functional, cell-based

Sequence of Voltage-dependent T-type calcium channel subunit alpha-1H (O95180 whole entry): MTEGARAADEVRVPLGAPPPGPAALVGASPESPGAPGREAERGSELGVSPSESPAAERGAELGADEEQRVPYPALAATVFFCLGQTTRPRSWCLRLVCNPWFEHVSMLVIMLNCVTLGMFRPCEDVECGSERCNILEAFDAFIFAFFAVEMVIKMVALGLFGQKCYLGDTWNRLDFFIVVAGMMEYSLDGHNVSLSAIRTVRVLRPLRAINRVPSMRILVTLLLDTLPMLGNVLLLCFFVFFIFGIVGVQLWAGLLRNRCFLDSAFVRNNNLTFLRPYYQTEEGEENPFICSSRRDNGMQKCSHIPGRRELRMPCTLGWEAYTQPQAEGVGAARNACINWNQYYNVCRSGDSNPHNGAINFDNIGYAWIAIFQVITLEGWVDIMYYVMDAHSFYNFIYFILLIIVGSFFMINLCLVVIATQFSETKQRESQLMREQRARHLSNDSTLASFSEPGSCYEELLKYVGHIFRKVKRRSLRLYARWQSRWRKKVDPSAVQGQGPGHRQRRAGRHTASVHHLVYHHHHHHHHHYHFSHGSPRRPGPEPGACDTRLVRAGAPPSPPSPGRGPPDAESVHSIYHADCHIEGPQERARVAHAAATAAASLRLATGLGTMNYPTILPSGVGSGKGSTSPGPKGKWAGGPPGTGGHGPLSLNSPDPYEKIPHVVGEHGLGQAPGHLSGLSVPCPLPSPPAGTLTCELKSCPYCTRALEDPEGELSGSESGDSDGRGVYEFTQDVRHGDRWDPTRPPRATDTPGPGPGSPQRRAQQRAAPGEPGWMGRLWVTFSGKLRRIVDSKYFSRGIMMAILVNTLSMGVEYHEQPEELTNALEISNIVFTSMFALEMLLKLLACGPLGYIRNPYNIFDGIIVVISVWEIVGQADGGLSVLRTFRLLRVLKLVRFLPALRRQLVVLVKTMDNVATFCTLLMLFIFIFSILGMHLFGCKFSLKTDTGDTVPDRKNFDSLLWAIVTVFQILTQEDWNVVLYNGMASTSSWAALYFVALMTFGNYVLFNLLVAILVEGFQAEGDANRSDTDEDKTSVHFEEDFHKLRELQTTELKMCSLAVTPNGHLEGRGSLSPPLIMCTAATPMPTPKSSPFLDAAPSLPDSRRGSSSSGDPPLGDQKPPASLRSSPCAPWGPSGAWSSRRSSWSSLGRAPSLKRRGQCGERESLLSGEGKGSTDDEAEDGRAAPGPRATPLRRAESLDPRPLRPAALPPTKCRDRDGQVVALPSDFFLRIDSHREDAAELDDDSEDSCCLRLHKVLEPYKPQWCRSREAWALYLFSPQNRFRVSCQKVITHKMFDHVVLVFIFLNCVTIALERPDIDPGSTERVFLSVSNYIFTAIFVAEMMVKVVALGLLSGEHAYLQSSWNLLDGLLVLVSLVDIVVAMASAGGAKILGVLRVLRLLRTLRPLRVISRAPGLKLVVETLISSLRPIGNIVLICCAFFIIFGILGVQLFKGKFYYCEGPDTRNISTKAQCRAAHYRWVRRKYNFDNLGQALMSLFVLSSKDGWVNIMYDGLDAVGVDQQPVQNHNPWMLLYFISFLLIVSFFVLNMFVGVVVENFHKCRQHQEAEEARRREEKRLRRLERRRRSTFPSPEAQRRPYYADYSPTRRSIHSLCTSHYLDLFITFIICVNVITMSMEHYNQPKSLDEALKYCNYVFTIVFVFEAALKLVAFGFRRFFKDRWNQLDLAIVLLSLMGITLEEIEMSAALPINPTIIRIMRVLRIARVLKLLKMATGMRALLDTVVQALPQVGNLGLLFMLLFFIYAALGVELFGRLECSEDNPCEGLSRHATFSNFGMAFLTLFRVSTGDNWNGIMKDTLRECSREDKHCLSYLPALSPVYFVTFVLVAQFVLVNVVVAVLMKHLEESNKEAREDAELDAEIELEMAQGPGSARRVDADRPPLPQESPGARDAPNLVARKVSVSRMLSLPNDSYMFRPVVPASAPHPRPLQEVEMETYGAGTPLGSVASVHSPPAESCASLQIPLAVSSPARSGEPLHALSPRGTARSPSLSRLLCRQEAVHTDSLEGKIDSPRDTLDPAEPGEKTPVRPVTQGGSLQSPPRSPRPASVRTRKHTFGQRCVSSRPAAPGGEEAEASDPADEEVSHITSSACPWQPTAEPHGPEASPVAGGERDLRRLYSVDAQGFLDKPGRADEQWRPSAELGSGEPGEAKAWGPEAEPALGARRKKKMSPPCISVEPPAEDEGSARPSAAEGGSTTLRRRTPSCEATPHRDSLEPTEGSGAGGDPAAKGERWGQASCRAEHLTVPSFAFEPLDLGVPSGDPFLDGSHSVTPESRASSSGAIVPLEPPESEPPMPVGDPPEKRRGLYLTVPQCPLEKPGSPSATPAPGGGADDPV
Sequence of SWI/SNF-related matrix-associated actin-dependent regulator of chromatin subfamily A member 2 (P51531 whole entry): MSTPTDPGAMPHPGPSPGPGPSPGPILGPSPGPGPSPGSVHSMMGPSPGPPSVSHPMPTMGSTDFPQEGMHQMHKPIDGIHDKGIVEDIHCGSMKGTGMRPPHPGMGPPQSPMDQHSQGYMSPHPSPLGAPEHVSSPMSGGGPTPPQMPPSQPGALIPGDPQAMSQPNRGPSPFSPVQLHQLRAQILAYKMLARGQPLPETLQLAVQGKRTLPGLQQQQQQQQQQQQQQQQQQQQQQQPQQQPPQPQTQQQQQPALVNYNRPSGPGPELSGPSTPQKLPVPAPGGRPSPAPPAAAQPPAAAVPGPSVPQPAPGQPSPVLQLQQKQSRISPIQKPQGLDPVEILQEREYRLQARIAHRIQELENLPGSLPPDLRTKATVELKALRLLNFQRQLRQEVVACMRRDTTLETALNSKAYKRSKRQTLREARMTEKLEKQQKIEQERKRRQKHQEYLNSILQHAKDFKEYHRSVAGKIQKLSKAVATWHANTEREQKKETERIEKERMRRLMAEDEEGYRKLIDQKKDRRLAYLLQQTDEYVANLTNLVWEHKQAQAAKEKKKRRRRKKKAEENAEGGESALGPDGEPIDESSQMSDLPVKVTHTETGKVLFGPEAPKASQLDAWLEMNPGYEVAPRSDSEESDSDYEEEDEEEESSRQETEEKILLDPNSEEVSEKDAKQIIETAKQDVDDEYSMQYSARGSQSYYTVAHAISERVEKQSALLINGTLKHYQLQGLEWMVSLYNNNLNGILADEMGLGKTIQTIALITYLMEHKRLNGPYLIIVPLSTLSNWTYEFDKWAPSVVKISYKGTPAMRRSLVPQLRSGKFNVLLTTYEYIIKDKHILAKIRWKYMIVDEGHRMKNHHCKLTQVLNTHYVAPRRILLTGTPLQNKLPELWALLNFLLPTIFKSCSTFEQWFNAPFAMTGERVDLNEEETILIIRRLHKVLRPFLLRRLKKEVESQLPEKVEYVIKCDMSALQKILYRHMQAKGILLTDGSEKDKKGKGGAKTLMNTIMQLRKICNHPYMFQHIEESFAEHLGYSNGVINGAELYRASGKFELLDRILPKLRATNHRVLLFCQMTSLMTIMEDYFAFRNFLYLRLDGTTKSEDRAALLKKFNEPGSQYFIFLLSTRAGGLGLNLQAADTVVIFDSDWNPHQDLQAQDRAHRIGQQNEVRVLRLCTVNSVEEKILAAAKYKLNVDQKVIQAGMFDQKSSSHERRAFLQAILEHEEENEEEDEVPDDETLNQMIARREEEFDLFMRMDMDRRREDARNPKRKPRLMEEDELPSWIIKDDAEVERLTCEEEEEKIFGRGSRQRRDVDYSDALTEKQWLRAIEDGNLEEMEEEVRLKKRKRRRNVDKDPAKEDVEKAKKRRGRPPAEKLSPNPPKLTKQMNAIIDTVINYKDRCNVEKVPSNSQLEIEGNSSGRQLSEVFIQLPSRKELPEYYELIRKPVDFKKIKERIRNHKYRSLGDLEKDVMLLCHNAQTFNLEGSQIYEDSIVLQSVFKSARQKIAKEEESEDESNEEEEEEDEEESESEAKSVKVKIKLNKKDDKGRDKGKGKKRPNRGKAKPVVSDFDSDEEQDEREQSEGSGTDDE
Sequence of Nonstructural protein 1 (Q194T2 whole entry): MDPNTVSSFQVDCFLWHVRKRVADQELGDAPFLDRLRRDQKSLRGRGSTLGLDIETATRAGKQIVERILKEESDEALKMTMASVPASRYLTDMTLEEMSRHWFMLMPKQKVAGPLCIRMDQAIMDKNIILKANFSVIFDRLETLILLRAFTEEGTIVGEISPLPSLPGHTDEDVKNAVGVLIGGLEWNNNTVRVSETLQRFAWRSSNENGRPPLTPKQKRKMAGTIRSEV
Sequence of Luciferin 4-monooxygenase (P08659 whole entry): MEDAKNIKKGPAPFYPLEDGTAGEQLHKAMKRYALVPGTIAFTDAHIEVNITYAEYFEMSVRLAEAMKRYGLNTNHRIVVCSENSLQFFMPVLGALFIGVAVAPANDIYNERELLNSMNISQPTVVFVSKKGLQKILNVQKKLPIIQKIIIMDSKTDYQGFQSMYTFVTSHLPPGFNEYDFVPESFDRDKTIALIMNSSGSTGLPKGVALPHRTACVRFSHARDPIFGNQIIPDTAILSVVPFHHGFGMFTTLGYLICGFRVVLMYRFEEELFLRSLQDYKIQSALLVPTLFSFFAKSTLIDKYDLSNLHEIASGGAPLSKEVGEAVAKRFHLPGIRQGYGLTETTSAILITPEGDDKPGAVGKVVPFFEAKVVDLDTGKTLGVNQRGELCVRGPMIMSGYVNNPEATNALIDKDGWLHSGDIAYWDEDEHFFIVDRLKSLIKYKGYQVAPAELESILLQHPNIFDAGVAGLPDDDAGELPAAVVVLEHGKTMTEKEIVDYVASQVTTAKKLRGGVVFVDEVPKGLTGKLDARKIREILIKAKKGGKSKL

SMILES: COc1cccc(C(=O)COC(=O)c2cccs2)c1
- EC50 [1]: > 91.1 µM (inactive)
- EC50 [2]: > 91.1 µM (inactive)

SMILES: Cc1nnc2c(N(C)S(=O)(=O)c3ccccc3)nc3ccccc3n12
- EC50 [1]: > 91.2 µM (inactive)
- EC50 [2]: > 91.2 µM (inactive)
- EC50 [3]: > 112 µM (not active)
- EC50 [4]: > 112 µM (not active)

SMILES: CCCCn1c(=O)c(C(=O)Nc2nnc(C(C)C)s2)c(O)c2ccccc21
- IC50 (cells [5]): 5.24 µM (active)

SMILES: O=C(CCSc1ccc(Cl)c(Cl)c1)NC12CC3CC(CC(C3)C1)C2
- EC50 [6]: 5.57 µM (active)

SMILES: CC(C(=O)OCC(=O)Nc1ccc(S(=O)(=O)N2CCCCC2)cc1)N1C(=O)c2ccccc2C1=O (stereo not given)
- EC50 [6]: 5.44 µM (active)

SMILES: COc1ccccc1/C=C1/SC(=S)N(C(C)C(=O)NC2C=CS(=O)(=O)C2)C1=O (stereo not given)
- EC50 [7]: 57.9 µM (active)
- AC50 [8]: > 60 µM (inactive)

SMILES: Cc1ccc(C(=O)NCc2ccc3c(c2)OCO3)cc1S(=O)(=O)N1CCCCC1
- EC50 [6]: 5.23 µM (active)

SMILES: O=C(NC(NC(=S)Nc1ccccc1Cl)C(Cl)(Cl)Cl)c1cccc(Cl)c1 (stereo not given)
- EC50 (HEK293 [9]): > 20 µM (inactive)
- EC50 [10]: 2.05 µM (active)
- EC50 (Streptokinase A): 5.81 µM (active)
- IC50 (HEK293 [11]): 3.78 µM (active)
- IC50 (HEK293 [12]): 3.72 µM (active)
- IC50 (HEK293 [13]): 11.5 µM (active)
- EC50 (Streptococcus): 3.79 µM (active)

SMILES: CC1CCCCN1C(=O)CSCC(=O)Nc1nc(-c2cccs2)cs1 (stereo not given)
- EC50 [6]: 4.06 µM (active)

SMILES: CCCCOC(=O)n1c(=O)oc2cc(S(=O)(=O)N3CCCCC3)ccc21
- EC50 (cells [14]): > 350 µM (not active)
- EC50 (cells [15]): > 350 µM (not active)
- EC50 [6]: 4.48 µM (active)

SMILES: CCc1sc(C(=O)Nc2nc(-c3ccccn3)cs2)cc1C
- AC50 [16]: 7.91 µM (active)
- AC50 (HEK293 [17]): 1.33 µM (active)

SMILES: O=C(OCc1nnc(-c2ccccc2)o1)c1cc(S(=O)(=O)N2CCOCC2)c(Cl)cc1Cl
- AC50 [8]: 10.8 µM (active)

SMILES: COCCCNC(=S)NNC(=O)c1ccccn1
- IC50 [18]: > 20 µM (inactive)
- IC50 (Nonstructural protein 1): 2.32 µM (active)
- AC50 [8]: 24.1 µM (active)

SMILES: CCOC(=O)c1sc(NC(=O)CNCc2ccccn2)c(C(=O)OCC)c1C
- EC50 [10]: 0.195 µM (active)
- EC50 [19]: 9.71 µM (active)
- AC50 (HEK293 [17]): 2.35 µM (active)
- IC50 (Nonstructural protein 1): 8.76 µM (active)
- EC50 (Streptococcus): 5.05 µM (active)
- EC50 [20]: 8.92 µM (active)
- EC50 [21]: 11.7 µM (active)

SMILES: Cc1ccccc1NC(=O)c1c(F)c(F)c(F)c(F)c1F
- AC50 [8]: 29.3 µM (active)

SMILES: COc1ccc(OC)c2sc(NC(=O)C3COc4ccccc4O3)nc12 (stereo not given)
- EC50 [6]: 78 µM (active)

SMILES: O=C(N/N=C/c1ccc(OC(=O)c2cccs2)cc1)c1ccccn1
- IC50 (cells [5]): 5.37 µM (active)

SMILES: CC(C)c1c(CN(C)C(C)Cc2ccccc2)n(C)n(-c2ccccc2)c1=O (stereo not given) [FAMPROFAZONE]
- AC50 (HEK293 [17]): 292 µM (active)
